Data published in patent US20210161997A1, “TREATING DISEASES VIA TARGETED MODULATION OF GENE SIGNALING NETWORKS” (Camp4 Therapeutics Corporation, priority 2018, published 2021).
Counter-ions that a name gives are not always drawn.

Experiments:
Format in all cases: cell-based
MECP2 mRNA [1] = assay: MECP2 mRNA in stellate cells; settings: average fold change; for Stellate MECP2 (Avg_FC) 1 uM: compound 1 uM; for Stellate MECP2 (Avg_FC) 10 uM: compound 10 uM
MECP2 mRNA [2] = assay: MECP2 mRNA in primary human hepatocytes (donor 1, donor 2); settings: average fold change; for Human hep donor-1 MECP2 (Avg_FC) 1 uM / Human hep donor-1 MECP2 (Avg_FC) 10 uM: human hepatocytes donor-1
Procedure: (§1) Human hepatocytes were obtained from two donors from Massachusetts General Hospital, namely MGH54 and MGH63, and one donor from Lonza, namely HUM4111B. Cryopreserved hepatocytes were cultured in plating media for 16 hours, transferred to maintenance media for 4 hours. Cultured on serum-free media for 2 hours, then a compound was added. The hepatocytes were maintained on the serum-free media for 16 hours prior to gene expression analysis. Primary human hepatocytes were stored in the vapor phase of a liquid nitrogen freezer (about −130° C.).
(§2) Human hepatocytes cultured as described above were plated in 24-well format, adding 375,000 cells per well in a volume of 500 ul plating medium. Four hours before treatment, cells were washed with PBS and the medium was changed to either: fresh maintenance medium (complete) or modified maintenance medium.
(§3) Compound stocks were prepared at 1000× final concentration and added in a 2-step dilution to the medium to reduce risk of a compound precipitating out of solution when added to the cells, and to ensure reasonable pipetting volumes. One at a time, each compound was first diluted 10-fold in warm (about 37° C.) modified maintenance medium (initial dilution=ID), mixed by vortexing, and the ID was diluted 100-fold into the cell culture (e.g. 5.1 ul into 1 well of a 24-well plate containing 0.5 mL medium). The plate was mixed by carefully swirling and after all wells were treated and returned to the incubator overnight. If desired, separate plates/wells were treated with vehicle-only controls and/or positive controls. If using multi-well plates, controls were included on each plate. After about 18 hours, cells were harvested for further analysis, e.g., ChIP-seq, RNA-seq, ATAC-seq, etc.
Samples were amplified using Taqman probes from ThermoFisher.

UGT1A1 = assay: RNA-seq of UGT1A1 expression in compound-treated primary human hepatocytes
Procedure: as §1, §2, §3
This protocol is a modified version of the following protocols: MagMAX mirVana Total RNA Isolation Kit User Guide (Applied Biosystems #MAN0011131 Rev B.0), NEBNext Poly(A) mRNA Magnetic Isolation Module (E7490), and NEBNext Ultra Directional RNA Library Prep Kit for Illumina (E7420) (New England Biosystems #E74901).
The MagMAX mirVana kit instructions (the section titled “Isolate RNA from cells” on pages 14-17) were used for isolation of total RNA from cells in culture. Two hundred μl of Lysis Binding Mix was used per well of the multiwell plate containing adherent cells (usually a 24-well plate).
For mRNA isolation and library prep, the NEBNext Poly(A) mRNA Magnetic Isolation Module and Directional Prep kit was used. RNA isolated from cells above was quantified, and prepared in […] of each sample in 50 μl of nuclease-free water. This protocol may be run in microfuge tubes or in a 96-well plate.
Standard QC were applied (read integrity, mapping statistics, library complexity, fragment bias) to remove unsatisfactory samples. […] Log 2 fold change and significance values were computed using PME count data (with replicates explicitly modeled versus pan-experiment controls), median ratio normalized, using maximum likelihood estimation rather than maximum a posteriori, and disabling the use of Cook's distance cutoff when determining acceptable adjusted p-values. […] RNA-seq signals were also normalized by read depth and visualized using the UCSC browser.
To identify small molecules that modulate target gene expression, primary human hepatocytes were prepared as a monoculture, and at least one small molecule compound was applied to the cells.
RNA-seq was performed to determine the effects of the compounds on the expression of the target genes in hepatocytes. Fold change was calculated by dividing the level of expression in the cell system that had been perturbed by the level of expression in an unperturbed system. Changes in expression having a p-value ≤0.05 were considered significant.
Significance was defined as an FPKM ≥1, a log 2(fold change) ≥0.5, and a q-value of ≤0.05 for all targets except for CPOX.

SMILES	UGT1A1 Fold Change (Log2) (UGT1A1)	other results
C=CCNC1=C2C[C@@H](C)C[C@H](OC)[C@H](O)[C@@H](C)/C=C(\C)[C@H](OC(N)=O)[C@@H](OC)/C=C\C=C(/C)C(=O)NC(=CC1=O)C2=O [17-AAG (Tanespimycin)/KOS-953]		Stellate MECP2 (Avg_FC) 1 uM (MECP2 mRNA [1]): 2.43; Stellate MECP2 (Avg_FC) 10 uM (MECP2 mRNA [1]): 2.21; Human hep donor-1 MECP2 (Avg_FC) 1 uM (MECP2 mRNA [2]; compound 1 uM): 1.63; Human hep donor-1 MECP2 (Avg_FC) 10 uM (MECP2 mRNA [2]; compound 10 uM): 2.80
CNC(=O)c1ccc(N2C(=S)N(c3cnc(C#N)c(C(F)(F)F)c3)C(=O)C23CCC3)cc1F [ARN-509]	1.16 Log2	
Cc1cc(Nc2nc(N[C@@H](C)c3ncc(F)cn3)ncc2Cl)[nH]n1 [AZD1480]	0.93 Log2	
C[C@@H]1COCCN1c1cc(C2([S@](C)(=N)=O)CC2)nc(-c2cc[nH]c3nccc2-3)n1 [AZD6738]	1.03 Log2	
O=C1Nc2cc(Br)ccc2/C1=C1/Nc2ccccc2/C1=N\O [BIO]	0.62 Log2	
Cc1ccc(-n2nc(C(C)(C)C)cc2NC(=O)Nc2ccc(OCCN3CCOCC3)c3ccccc23)cc1 [BIRB 796]	1.04 Log2	
CCOc1ccn(-c2ccc(F)cc2)c(=O)c1C(=O)Nc1ccc(Oc2ccnc(N)c2Cl)c(F)c1 [BMS 777607]		Stellate MECP2 (Avg_FC) 1 uM (MECP2 mRNA [1]): 0.97; Stellate MECP2 (Avg_FC) 10 uM (MECP2 mRNA [1]): 1.92; Human hep donor-2 MECP2 (Avg_FC) 1 uM (MECP2 mRNA [2]; human hepatocytes donor-2, compound 1 uM): 1.35; Human hep donor-2 MECP2 (Avg_FC) 10 uM (MECP2 mRNA [2]; human hepatocytes donor-2, compound 10 uM): 3.04
C[C@@]1(C(=O)Nc2ccc(F)nc2)CCCN1c1nc(Nc2cc(C3CC3)n[nH]2)c2cccn2n1 [BMS-754807]	1.33 Log2	
C=C(c1ccc(C(=O)O)cc1)c1cc2c(cc1C)C(C)(C)CCC2(C)C [Bexarotene]	1.29 Log2	
c1cc(OCCN2CCCCC2)cc(-c2n[nH]c3ccc(-c4nc[nH]n4)cc23)c1 [CC-401 hydrochloride]		Stellate MECP2 (Avg_FC) 1 uM (MECP2 mRNA [1]): 1.92; Stellate MECP2 (Avg_FC) 10 uM (MECP2 mRNA [1]): 2.69; Human hep donor-1 MECP2 (Avg_FC) 1 uM (MECP2 mRNA [2]; compound 1 uM): 1.84; Human hep donor-1 MECP2 (Avg_FC) 10 uM (MECP2 mRNA [2]; compound 10 uM): 2.03
C[C@H]1COC2=C1C(=O)C(=O)c1c2ccc2c1CCCC2(C)C [Cryptotanshinone]	0.93 Log2	
Cc1nc(Nc2ncc(C(=O)Nc3c(C)cccc3Cl)s2)cc(N2CCN(CCO)CC2)n1 [Dasatinib]	0.67 Log2	
CC[C@@](C)(Nc1ccnc(-c2c[nH]c3ncccc23)n1)C(=O)NCC(F)(F)F [Decernotinib]	0.58 Log2	
c1cc(-c2cnn3cc(-c4ccc(OCCN5CCCCC5)cc4)cnc23)ccn1 [Dorsomorphin]	0.57 Log2	
C=C1/C(=C\C=C2/CCC[C@]3(C)[C@@H]([C@H](C)/C=C/C=C/C(O)(CC)CC)CC[C@@H]23)C[C@@H](O)C[C@@H]1O [EB1089]	0.88 Log2	
Cc1cc(C)c2c(c1)[C@@H](N(Cc1cc(C(F)(F)F)cc(C(F)(F)F)c1)c1nnn(C)n1)CCCN2C[C@H]1CC[C@H](C(=O)O)CC1 [Evacetrapib]	0.78 Log2	
CCn1c(=O)c(-c2ccc(-c3cncs3)cc2Cl)cc2cnc(Nc3ccc(N4CCN(C)CC4)cc3)nc21 [FRAX597]	0.61 Log2	
OCCn1cc(-c2ccc3c(c2)CC/C3=N\O)c(-c2ccncc2)n1 [GDC-0879]	0.55 Log2	
CC(C)c1onc(-c2c(Cl)cccc2Cl)c1COc1ccc(/C=C/c2cccc(C(=O)O)c2)c(Cl)c1 [GW4064]	0.92 Log2	
CCC1=C(C)CN(C(=O)NCCc2ccc(S(=O)(=O)NC(=O)N[C@H]3CC[C@H](C)CC3)cc2)C1=O [Glimepiride]	0.96 Log2	
